Laboratory results: patent US12459941B2, “Tricyclic IRAK inhibitors” (Rigel Pharmaceuticals, Inc., priority 2022, dated 2025)
Where a name gives a salt, the structure may show the parent alone.

Legend:
IL23-p19 = test: LPS induced IL23p19 in THP-1 cells (IFNγ primed), sandwich ELISA; assay type: cell-based; conditions: Homo sapiens; THP-1 cells primed with IFNγ, LPS 1 μg/mL, 10 pt curve; read-out: IL23-p19 ELISA, THP1-IFNy, LPS, 10 pt
Source text: LPS Induced IL23p19 in THP-1 Cells (with IFNγ Primed) Assay
THP-1 Cells (ATCC, Cat #TIB-202), Dimethyl Sulfoxide (DMSO) (Sigma-Aldrich, Cat #D2650), RPMI 1640 (Cellgro, Cat #10-040-CM), Fetal Bovine Serum (Sigma, Cat #F4135), Albumin From Bovine Serum (BSA) (Sigma-Aldrich, Cat #A7906), LPS (Serotype K-235, Sigma, Product Number L 2143), IFNγ (Peprotech, Cat #300-02), Capture antibody: Human IL-23p19 ELISA (e-Bioscience, Cat. #14-7238-85), Detection antibody: Primary Mouse Biotinylated anti-human IL-12(p40/p70) (e-Bioscience, Cat. #13-7129-85), Secondary HRP-conjugated Streptavidin (R&D Systems, Cat #DY998), 1×PBST Washing Buffer (PBS-Tween tablet) (VWR International, Cat #80058-558), ELISA Blocking Buffer (PBS with 1% BSA), ELISA Dilution Buffer (PBS with 1% BSA), 384 Well Flat-Bottom, MaxiSorp Black Immuno Plates (Thermo Scientific, Cat #12-565-346), 384 Well Flat-Bottom, White Tissue Culture Plates (Thermo Scientific, Cat #12-565-343), Super Signal ELISA Pico Chemiluminescent Substrate (Thermo Scientific, Cat #37070), Cell Titer Glo reagent (Promega, Cat #G7573), Positive control, IKK2VI inhibitor (Calbiochem, Cat #401483), AquaMax 4000 plate washer (Molecular Devices), Luminometer, Wallac Victor2 1420 Multilabel Counter.
On day 1, 50K/well THP-1 cells were seeded and primed with IFNγ (50 ng/mL) in 384-well plates for about 18 hours in RPMI media with 10% FBS. On day 2, the compound was serially diluted in DMSO from 5 mM in 3-fold dilutions, and then diluted 1:125 in RPMI media with 10% FBS. 50 μL/well 2× compound was added to 50 μL/well THP-1 cells (with IFNγ primed) in duplicate in 384 well tissue culture plates. The cells were pre-incubated with compound for 1 hour at 37° C., 5% CO2 before addition of 10 μL/well 11×LPS to give a final concentration of 1 μg/mL LPS. Day 3, after stimulation for 18 hours at 37° C., 5% CO2, the assay plate was centrifuged and 70 μL/well supernatant was harvested. IL-23p19 protein in 70 μL/well of supernatant was measured by sandwich ELISA, and 25 μl/well Cell Titer Glo reagent was added to the remaining cells to measure compound toxicity.
Human IL-23p19 Sandwich ELISA:
Maxisorp immuno ELISA plates were pre-coated with 25 μL/well of anti-IL-23p19 capture antibody (2.5 ug/mL) in PBS overnight at room temperature. After washing with 1×PBST, the plates were blocked using 100 μL/well of 1% BSA in PBS for 2 hours at room temperature. The plates were washed three times with 1×PBST and 70 μL/well supernatant were added. The plates were incubated at room temperature for 2 hours with shaking and washed three times with 1×PBST. 25 μL/well of biotin labeled anti-IL-12(p40/p70) detection antibody (100 ng/mL) in PBS with 1% BSA was added and the plates were incubated at room temperature for 2 hours with shaking. After washing three times with 1×PBST, 25 μL/well of streptavidin-HRP (1:200) in PBS with 1% BSA was added and the plates were incubated at room temperature for 20 minutes with shaking. The plates were washed three times with 1×PBST and 25 μL/well of Super Signal ELISA Pico Chemiluminescent Substrate were added. The plates were read with a luminometer, and the chemiluminescence values were entered into Athena (Rigel) for curve fitting, EC50 calculation, and database storage.

IRAK1 = IRAK1 (Homo sapiens, UniProt P51617); test: IRAK1 ADP-Glo Kinase assay; assay type: biochemical; conditions: 8 pt curve
Chain of IRAK1 (P51617 whole entry): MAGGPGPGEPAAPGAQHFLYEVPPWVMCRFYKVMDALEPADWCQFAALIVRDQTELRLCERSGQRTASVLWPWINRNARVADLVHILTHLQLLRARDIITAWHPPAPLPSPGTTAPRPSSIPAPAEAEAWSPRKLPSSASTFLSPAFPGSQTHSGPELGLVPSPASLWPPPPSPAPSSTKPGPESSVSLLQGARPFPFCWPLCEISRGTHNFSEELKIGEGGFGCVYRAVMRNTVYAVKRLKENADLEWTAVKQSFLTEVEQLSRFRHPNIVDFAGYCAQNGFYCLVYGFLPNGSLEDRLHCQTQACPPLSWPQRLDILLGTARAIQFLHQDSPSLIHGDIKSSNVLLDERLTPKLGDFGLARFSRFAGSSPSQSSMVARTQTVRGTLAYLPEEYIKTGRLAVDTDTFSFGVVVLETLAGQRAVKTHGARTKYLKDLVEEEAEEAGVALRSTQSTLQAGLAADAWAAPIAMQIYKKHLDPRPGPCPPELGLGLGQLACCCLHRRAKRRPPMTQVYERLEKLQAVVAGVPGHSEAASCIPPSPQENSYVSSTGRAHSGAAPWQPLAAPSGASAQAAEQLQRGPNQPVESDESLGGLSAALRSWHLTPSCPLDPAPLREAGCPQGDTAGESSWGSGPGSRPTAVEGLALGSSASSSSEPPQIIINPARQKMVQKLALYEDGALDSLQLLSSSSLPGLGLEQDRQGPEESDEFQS

IRAK4 = molecular target: T1, IRAK4 (Homo sapiens, UniProt Q9NWZ3); test: IRAK4 ADP-Glo assay; assay type: biochemical; conditions: 8 pt curve; read-out: IRAK4 ADP-Glo Kinase, 8 pt
T1 construct: purchased Signalchem I12-10G-20
T1 sequence (Q9NWZ3 1-460): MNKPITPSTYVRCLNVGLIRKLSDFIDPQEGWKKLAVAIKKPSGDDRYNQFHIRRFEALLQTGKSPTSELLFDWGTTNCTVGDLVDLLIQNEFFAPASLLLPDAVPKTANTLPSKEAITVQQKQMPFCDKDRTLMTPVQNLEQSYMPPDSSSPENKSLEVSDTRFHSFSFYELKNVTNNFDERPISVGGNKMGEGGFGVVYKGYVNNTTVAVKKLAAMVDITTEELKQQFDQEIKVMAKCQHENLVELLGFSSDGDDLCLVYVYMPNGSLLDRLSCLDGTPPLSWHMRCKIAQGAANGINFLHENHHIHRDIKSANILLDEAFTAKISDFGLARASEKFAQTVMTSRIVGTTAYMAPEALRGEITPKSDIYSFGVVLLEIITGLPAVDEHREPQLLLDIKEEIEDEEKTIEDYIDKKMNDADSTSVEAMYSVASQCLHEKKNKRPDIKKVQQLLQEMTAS
Method: IRAK4 Kinase Enzyme (Signalchem, I12-10G-20); 0.1M DTT (Signalchem, D86-09B); MBP Substrate (Signalchem, M42-51N); ADP Glo (Promega, V9101); 1M MgCl2 (Teknova, M03304); 1M Tris-HCl pH7.4 (Teknova, T1074); BSA (Sigma (A3059); Distilled H2O
Wallac Victor2 1420 Multilabel Counter
The ADP-Glo™ reagents were thawed at ambient temperature. The Kinase Detection Reagent was prepared by mixing kinase detection buffer with the lyophilized kinase detection substrate, and set aside.
A stock volume of 5× Reaction Kinase Buffer was made with a final concentration of 100 mM MgCl2, 200 mM Tris-HCl, and 0.5 mg/ml of BSA, in distilled H2O with a final pH7.4. A 2× working stock volume of Reaction Kinase Buffer was made containing a final concentration of […].
The components of IRAK4 Enzyme were thawed on ice. Diluted IRAK4 in 1× Kinase Reaction Buffer (diluted from 2× buffer) was prepared at […]. A […] working stock ATP Assay Solution was prepared in 1× Kinase Reaction Buffer (diluted from 2× buffer).
The compound was diluted in DMSO from 250 µM in 4-fold series dilutions for 8 points. Then diluted 1:5 in 2× Reaction Buffer in a 96 well plate. 1.01 was transferred to a 384 well plate in duplicate. […] 1 μl of 1 mg/ml stock solution of MBP substrate was added NOTE: MBP can be combined with ATP mix with equal volume and then added at 2 d/well. Final reaction volume was 5 μl.
The plate was centrifuged and the reaction mixture was incubated at room temperature for 60 minutes or at 30° C. for 30 minutes.
The reaction was terminated and the remaining ATP was depleted by adding 5 μl of ADP-Glo™ Reagent. The 384-well plate was centrifuged and then the reaction mixture was incubated for another 40 minutes at ambient temperature.
10 μl of the Kinase Detection Reagent was added. The plate was centrifuged and then the reaction mixture was incubated for another 30 minutes at ambient temperature.
The 384-well reaction plate was read using the WALLAC plate reader (Luminescence 0.1s).

TNFa [1] = test: TNFa ELISA, dendritic cells, Gardiquimod stimulated; assay type: cell-based; conditions: Homo sapiens, Dendritic cell, 10 pt curve
TNFa [2] = test: TNFa ELISA, PBMC, Resiquimod (R848) stimulated; assay type: cell-based; conditions: 10 pt curve
TNFa [3] = test: TNFa ELISA, THP1-IFNy, LTA stimulated; assay type: cell-based; conditions: 10 pt curve

Row | Structure (SMILES) | EC50 (IL23-p19) [µM] | IC50 (IRAK1) [µM] | IC50 (IRAK4) [µM] | EC50 (TNFa [1]) [µM] | EC50 (TNFa [2]) [µM] | EC50 (TNFa [2]; formic acid salt) [µM] | EC50 (TNFa [3]) [µM]
1 | O=C1CC[C@@H](COc2nccc3cc4c(=O)[nH]cc(C#CCO)c4cc23)N1 [I-21, (S)-4-(3-hydroxyprop-1-yn-1-yl)-6-((5-oxopyrrolidin-2-yl)methoxy)pyrido[3,4-g]isoquinolin-1(2H)-one] | 0.778 | 0.777 | 0.0058 | 1.5 | 0.422 |  | 
2 | CC#Cc1c[nH]c(=O)c2cc3ccnc(OC[C@@H]4CCC(=O)N4)c3cc12 [I-24, (S)-6-((5-oxopyrrolidin-2-yl)methoxy)-4-(prop-1-yn-1-yl)pyrido[3,4-g]isoquinolin-1(2H)-one] | 0.377 |  | 0.0557 | 0.316 | 0.283 |  | 
3 | O=C1CC[C@@H](COc2nccc3cc4c(=O)[nH]cc(CC(F)F)c4cc23)N1 [I-17, (S)-4-(2,2-difluoroethyl)-6-((5-oxopyrrolidin-2-yl)methoxy)pyrido[3,4-g]isoquinolin-1(2H)-one] | 16.1 | 10.6 | 0.0214 | 0.607 | 0.36 |  | 
4 | O=C1CC[C@@H](COc2nccc3cc4c(=O)[nH]cc(CCO)c4cc23)N1 [I-22, (S)-4-(2-hydroxyethyl)-6-((5-oxopyrrolidin-2-yl)methoxy)pyrido[3,4-g]isoquinolin-1(2H)-one] | 6.98 | 9.08 | 0.0104 | 2.01 | 4.47 |  | 
5 | Cc1c[nH]c(=O)c2cc3ccnc(OC[C@@H]4CCC(=O)N4)c3cc12 [I-2, (S)-4-methyl-6-((5-oxopyrrolidin-2-yl)methoxy)pyrido[3,4-g]isoquinolin-1(2H)-one formic acid salt] |  | 3.84 | 0.0067 |  |  | 0.135 | 0.274
6 | NCC#Cc1c[nH]c(=O)c2cc3ccnc(OC[C@@H]4CCC(=O)N4)c3cc12 [I-29, (S)-4-(3-aminoprop-1-yn-1-yl)-6-((5-oxopyrrolidin-2-yl)methoxy)pyrido[3,4-g]isoquinolin-1(2H)-one] | 14 | 34.6 | 1.43 | 9.09 | 1.46 |  | 
7 | O=C1CC[C@@H](COc2nccc3cc4c(=O)[nH]cc(C5CC5)c4cc23)N1 [I-14, (S)-4-cyclopropyl-6-((5-oxopyrrolidin-2-yl)methoxy)pyrido[3,4-g]isoquinolin-1(2H)-one] | 0.956 | 4.77 | 0.0049 | 0.196 | 0.187 |  | 
8 | Cc1c[nH]c(=O)c2cc3ccnc(OC[C@@H]4CCC(=O)N4)c3cc12 [I-25, (S)-4-methyl-6-((5-oxopyrrolidin-2-yl)methoxy)pyrido[3,4-g]isoquinolin-1(2H)-one] | 0.0796 |  | 0.0692 | 6.22 | 0.393 |  | 
9 | CC(C)c1c[nH]c(=O)c2cc3ccnc(OC[C@@H]4CCC(=O)N4)c3cc12 [I-15, (S)-4-isopropyl-6-((5-oxopyrrolidin-2-yl)methoxy)pyrido[3,4-g]isoquinolin-1(2H)-one] | 0.501 | 8.37 | 0.0062 |  | 0.0683 |  | 
10 | O=C1CC[C@@H](COc2nccc3cc4c(=O)[nH]cc(C(F)(F)F)c4cc23)N1 [I-30, (S)-6-((5-oxopyrrolidin-2-yl)methoxy)-4-(trifluoromethyl)pyrido[3,4-g]isoquinolin-1(2H)-one] | 2.26 |  | 0.212 | 18.3 | 2.02 |  | 
